Results on two molecules are retold here after patent US12545677B2, “Compounds useful as factor XIa inhibitors” (JANSSEN PHARMACEUTICA NV, priority 2020, dated 2026).

In general, pIC50 refers to the negative decadic logarithm of the IC50, by convention in mol/L.

pIC50: −log10 of the molar value.

Experiment [1] relates to activated partial thromboplastin time (aPTT). Nature of the experiment: Ex vivo clotting assay (aPTT). The experiment is classed as in vivo, New Zealand White (NZW) rabbits. Conditions: for ex vivo aPTT Onset of Clotting Time, mean: n 4, in s (unit assumed). The source says:
The following coagulation reagents were purchased from Diagnostica Stago (Parsippany, NJ): Thrombin 10 (Catalog No: 00611, lot No: 251851) for thrombin time (TT), Neoplastine® Cl 5 (Catalog No: 00666, lot No: 01504) for prothrombin time (PT), C.K. Prest® 5 (Catalog No: 00597, lot No: 112768) and CaCl2 (0.025 M, Catalog No: 00367, Lot No: 254158) for activated partial thromboplastin time (aPTT). Coagulometer STA rt4 (Diagnotica Stago) was used for ex vivo clotting time analysis.
Blood samples (1 mL each) were collected in 3.2% sodium citrate (BD Biosciences, Franklin Lakes, NJ) before and after shunt set up from the femoral artery cannula and centrifuged at 2500 g for 15 minutes at 20° C. The resulting platelet poor plasma (PPP) was transferred into clean tubes and stored at −80° C. until use.
Coagulation assays were performed with PPP in a 4 channel coagulometer STA rt4 (Diagnotica Stago). For the aPTT assay, 50 μl C.K. Preset reagent was incubated with 50 μl PPP for 3 min at 37° C. in a cuvette, and coagulation was initiated by adding 50 μl 25 mM CaCl2). The onset of clotting was recorded as the coagulation time.
Statistical analysis: All the data are expressed as mean±SEM. Statistical analyses were performed using GraphPad Prism software (v8.0). Significance was defined at p<0.05 as determined by one-way ANOVA. Tukey's test was used for multiple comparisons.

Experiment [2] deals with human plasma kallikrein (Homo sapiens, UniProt P03952). Nature of the experiment: Kallikrein inhibition assay utilizing quenched AMC peptide substrate. It is filed as biochemical. The conditions noted are these: read-out: Plasma kallikrein (PK) IC50. How it is done: Biological Example 2: Kallikrein Inhibition Assay
human plasma kallikrein, sequence (P03952 391-638 limits assumed): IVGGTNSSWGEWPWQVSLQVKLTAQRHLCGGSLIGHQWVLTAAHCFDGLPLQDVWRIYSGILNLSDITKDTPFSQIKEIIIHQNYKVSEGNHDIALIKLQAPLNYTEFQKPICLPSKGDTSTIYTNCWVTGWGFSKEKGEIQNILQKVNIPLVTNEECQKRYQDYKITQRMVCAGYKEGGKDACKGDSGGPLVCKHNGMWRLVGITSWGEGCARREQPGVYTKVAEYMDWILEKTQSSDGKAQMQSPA
human plasma kallikrein, sequence (P03952 20-390 partner limits assumed): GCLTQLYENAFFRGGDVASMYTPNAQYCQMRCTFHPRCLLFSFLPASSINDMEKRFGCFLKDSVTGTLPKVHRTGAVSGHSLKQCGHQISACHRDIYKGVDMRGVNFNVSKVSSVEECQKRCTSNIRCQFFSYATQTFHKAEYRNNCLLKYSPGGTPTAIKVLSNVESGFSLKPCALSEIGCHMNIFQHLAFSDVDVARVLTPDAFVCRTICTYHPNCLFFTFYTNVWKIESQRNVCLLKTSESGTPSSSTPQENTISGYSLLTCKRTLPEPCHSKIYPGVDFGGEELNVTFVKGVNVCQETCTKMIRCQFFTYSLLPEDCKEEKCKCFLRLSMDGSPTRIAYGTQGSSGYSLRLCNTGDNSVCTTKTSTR
Utilizing Quenched AMC Peptide Substrate
A fluorescence intensity-based assay was used to monitor inhibition of human plasma kallikrein. The peptide substrate, Z-Gly-Pro-Arg-AMC (Purchased from Bachem; Catalog #1-1150) was chosen based on its relatively low KM for kallikrein which enables running the assay at lower substrate concentrations to control background fluorescence. The kinetic parameters for this substrate were determined by fitting titration data to the Michaelis-Menten equation yielding a KM=40 μM, kcat=0.76 s^−1, and kcat/KM=18932 M^−1s^−1.
Kallikrein FLINT assay was used with the following Z-Gly-Pro-Arg-AMC assay buffer: 50 mM Tris, pH 7.5, 100 mM NaCl, 5 mM CaCl2, 0.1 mg/mL BSA, 0.03% CHAPS. Assay buffer was prepared by mixing all ingredients fresh. 2× Z-Gly-Pro-Arg-AMC peptide substrate was prepared by diluting 10 mM stock into 1× assay buffer for a 100 μM working concentration (50 μM final concentration). The 2× kallikrein stock solution was prepared by diluting 14.76 μM stock in 1× assay buffer for a 4 nM working stock solution (2 nM final concentration).
Test compound(s) were run in an 11-point, 3-fold serial dilution with a final top compound concentration of 1 μM. Final DMSO in assay: 2% DMSO. 2 nM kallikrein and test compound were pre-incubated for 30 minutes and 50 μM substrate was then added to initiate the reaction. The assay was linear using 2 nM kallikrein greater than 30 minutes. More specifically, the assay was run as follows: • 100 nL of 1 mM test compound was dispensed into a black 384-well non-binding Greiner BioOne 784900 plate for 10 μM final concentration with 1% DMSO final concentration; • 5 μL of 1× assay buffer was dispensed to columns 24 (low control) and 5 μL 2× human kallikrein enzyme solution was dispensed to columns 1-23 (column 23 high control); • the plate was centrifuged with a cover plate at 500 rpm for 1 min • the plate was pre-incubated for 30 minutes at room temperature with plate covered; • 5 μL of 2× Z-Gly-Pro-Arg-AMC peptide substrate was dispensed into the entire plate, columns 1-24; • the plate was centrifuged with a “cover” plate at 500 rpm for 1 min; • the plate was read kinetically monitoring fluorescence intensity on the BMG PHERAStar at room temperature, using fluorescence module F1 340 mm/440 mm.
Percent inhibition (IC50) curves were generated per compound tested, and data was analyzed using a 4-parameter logistic fit using GeneData Screener. […]

Setting [3] is: 0.15 + 0.13 mg/kg initial + maintenance, 20 min post initial dose.
The mark [4] stands for this setting: 0.15 + 0.13 mg/kg initial + maintenance, 60 min post initial dose.
[5] abbreviates: 0.5 + 0.43 mg/kg initial + maintenance, 20 min post initial dose.
Setting [6] is: 0.5 + 0.43 mg/kg initial + maintenance, 60 min post initial dose.
Setting [7] is: 1.5 + 1.3 mg/kg initial + maintenance, 20 min post initial dose.
The mark [8] stands for this setting: 1.5 + 1.3 mg/kg initial + maintenance, 60 min post initial dose.
Setting [9] is: 5.0 + 4.3 mg/kg initial + maintenance, 20 min post initial dose.
Setting [10] is: 5.0 + 4.3 mg/kg initial + maintenance, 60 min post initial dose.
[11] abbreviates: 15.0 + 13.0 mg/kg initial + maintenance, 20 min post initial dose.
[12] abbreviates: 15.0 + 13.0 mg/kg initial + maintenance, 60 min post initial dose.

As to `O=C1C=C(c2c(-n3cnnn3)ccc(Cl)c2F)C[C@H]2CC[C@@H](c3ncc(-c4ccnc(CO)c4F)[nH]3)N12` [Compound of formula (I-A), (3S,8aR)-7-(3-Chloro-2-fluoro-6-(1H-tetrazol-1-yl)phenyl)-3-(5-(3-fluoro-2-(hydroxymethyl)pyridin-4-yl)-1H-imidazol-2-yl)-2,3,8,8a-tetrahydroindolizin-5(1H)-one], the “ex vivo aPTT, Fold vs baseline” value is reported as 1.37 in experiment [1] (setting [3]); 1.17 in experiment [1] (setting [4]); 1.24 in experiment [1] (setting [5]); 1.02 in experiment [1] (setting [6]); 1.59 in experiment [1] (setting [7]); 1.37 in experiment [1] (setting [8]). Besides, the “ex vivo aPTT, Fold vs baseline” value in experiment [1] (setting [9]) is 2.32; in experiment [1] (setting [10]) it was 2.14; in experiment [1] (setting [11]), 3.40; in experiment [1] (setting [12]), 3.27. Further, the “ex vivo aPTT Onset of Clotting Time, mean” value is listed as 28.00 in experiment [1] (setting [3]); 23.88 in experiment [1] (setting [4]); 25.40 in experiment [1] (setting [5]); 20.95 in experiment [1] (setting [6]); 32.50 in experiment [1] (setting [7]); 28.05 in experiment [1] (setting [8]). Besides, the “ex vivo aPTT Onset of Clotting Time, mean” value in experiment [1] (setting [9]) worked out at 47.40; in experiment [1] (setting [10]) it was 43.75; in experiment [1] (setting [11]), 69.6; in experiment [1] (setting [12]), 67.00.
Consider `O=C(O)c1nccc(-c2cnc([C@@H]3CC[C@@H]4CC(c5c(-n6cnnn6)ccc(Cl)c5F)=CC(=O)N43)[nH]2)c1F` [Compound of formula (II-A), 4-(2-((3S,8aR)-7-(3-chloro-2-fluoro-6-(1H-tetrazol-1-yl)phenyl)-5-oxo-1,2,3,5,8,8a-hexahydroindolizin-3-yl)-1H-imidazol-5-yl)-3-fluoropicolinic acid], for which the negative logarithm of the IC50 (pIC50) in experiment [2] is 7.96.
